Experimental data taken from patent US5254554A, “3-hydroxy-substituted-1-phenyl-1,4-dihydro-4-oxopyridazines and derivatives, and use” (Pierre Fabre Medicament, priority 1991, dated 1993).

Experiments:
Lipoxygenase = target: T1, Lipoxygenase (Rattus norvegicus, UniProt P12527); assay: Inhibition of Lipoxygenase: inhibition of leukotriene B4 production by polymorphonuclear cells stimulated by Ionophore A 23 187; type: cell-based; details: polymorphonuclear peritoneal cell suspensions
T1 construct: suspensions of polymorphonuclear peritonea of rates stimulated by means of the Ionophore A 23 187; endogenous in cells; host or cells: rat peritoneal polymorphonuclear cells
T1 sequence (P12527 1-673): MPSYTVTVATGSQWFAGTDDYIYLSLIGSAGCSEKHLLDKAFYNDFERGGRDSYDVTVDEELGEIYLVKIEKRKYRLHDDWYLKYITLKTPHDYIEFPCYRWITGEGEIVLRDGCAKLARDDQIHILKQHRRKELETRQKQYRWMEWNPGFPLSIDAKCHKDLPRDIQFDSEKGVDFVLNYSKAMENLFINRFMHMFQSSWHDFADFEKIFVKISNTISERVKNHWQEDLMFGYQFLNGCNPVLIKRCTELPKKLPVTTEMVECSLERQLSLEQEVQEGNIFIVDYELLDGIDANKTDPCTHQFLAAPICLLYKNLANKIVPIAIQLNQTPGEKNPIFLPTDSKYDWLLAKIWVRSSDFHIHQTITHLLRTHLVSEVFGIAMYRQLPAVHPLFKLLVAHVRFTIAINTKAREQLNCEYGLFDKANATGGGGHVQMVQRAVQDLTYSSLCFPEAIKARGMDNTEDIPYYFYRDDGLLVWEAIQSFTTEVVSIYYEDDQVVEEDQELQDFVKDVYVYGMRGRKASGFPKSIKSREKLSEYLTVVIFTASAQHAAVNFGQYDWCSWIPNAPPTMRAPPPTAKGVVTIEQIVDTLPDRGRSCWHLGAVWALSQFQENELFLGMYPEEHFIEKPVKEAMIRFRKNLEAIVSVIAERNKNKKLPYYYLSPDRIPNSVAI

[1] = Anxiolytic activity, Vogel test; type: in vivo; details: 30 mg/kg per os
Description: (§1) Results obtained on the products of the present invention are presented in the following and are expressed in percentage of increase by reference to an untreated control, with the product being administered per os at a dose of 30 mg/kg.

[2] = Anxiolytic activity, X-labyrinth test (elevated plus maze); type: in vivo; details: 30 mg/kg per os
Description: as §1

| Compound | IC50 (Lipoxygenase) [nM] | Vogel test: percentage of increase by reference to an untreated control [1] [%] | X-labyrinth test: percentage of increase by reference to an untreated control [2] [%] |
| --- | --- | --- | --- |
| Cc1cc(=O)c(OCc2ccc3ccccc3n2)nn1-c1cccc(C(F)(F)F)c1 [Compound 11, 1-Metatrifluoromethylphenyl-1,4-dihydro-3-(2-quinolylmethoxy)-4-oxo-6-methylpyridazine] | 1100 | – | – |
| COc1nn(-c2cccc(C(F)(F)F)c2)c(C)cc1=O [Compound 2, 1-Metatrifluoromethylphenyl-1,4-dihydro-3-methoxy-4-oxo-6-methylpyridazine] | – | 95 | 95 |
| COc1nn(-c2cccc(C(F)(F)F)c2)ccc1=O [Compound 9, 1-Metatrifluoromethylphenyl-1,4-dihydro-3-methoxy-4-oxopyridazine] | – | 52 | 165 |
| C=CCOc1nn(-c2cccc(C(F)(F)F)c2)c(C)cc1=O [Compound 5, 1-Metatrifluoromethylphenyl-1,4-dihydro-3-allyloxy-4-oxo-6-methylpyridazine] | – | 48 | – |
| O=c1ccn(-c2cccc(C(F)(F)F)c2)nc1OCc1ccccc1 [Compound 10, 1-Metatrifluoromethylphenyl-1,4-dihydro-3-benzyloxy-4-oxopyridazine] | 25000 | 38 | – |
| Cc1cc(=O)c(OCc2ccccc2)nn1-c1cccc(C(F)(F)F)c1 [Compound 6, 1-Metatrifluoromethylphenyl-1,4-dihydro-3-benzyloxy-4-oxo-6-methylpyridazine] | 1250 | 98 | 18 |
